Results reported in the supplement of paper PMC10307832.

Experiments:
Test in all cases: relative viability (nuclei count vs DMSO), 5 days (fraction); higher = more cells survive
[1] = test system: NCI-H1944
Outline: (§1)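 Lung cancer cell lines were pin-tool dosed in 1536-well plates on the day after seeding, with either a lone drug or a fixed anchor-drug dose plus five library-drug doses (not always all listed) in √10 steps. Nuclei were counted on 4× images after 5 days. Relative viability is the ratio of treated-well to vehicle-well nuclei counts, with each value a median of duplicate plates.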

[2] = test system: NCI-H650
Outline: as §1

[3] = test system: NCI-H2023
Outline: as §1

[4] = test system: NCI-H1793
Outline: as §1

[5] = test system: H3255
Outline: as §1

[6] = test system: EMC-BAC-2
Outline: as §1

[7] = test system: HCC-44
Outline: as §1

[8] = test system: NCI-H2405
Outline: as §1

[9] = test system: LU99A
Outline: as §1

[10] = test system: SK-MES-1
Outline: as §1

[11] = test system: NCI-H1651
Outline: as §1

[12] = test system: NCI-H2085
Outline: as §1

[13] = test system: HCC-827
Outline: as §1

[14] = test system: EPLC-272H
Outline: as §1

[15] = test system: NCI-H1395
Outline: as §1

[16] = test system: NCI-H520
Outline: as §1

[17] = test system: NCI-H838
Outline: as §1

[18] = test system: LCLC-103H
Outline: as §1

[19] = test system: COR-L23
Outline: as §1

[20] = test system: ChaGo-K-1
Outline: as §1

[21] = test system: NCI-H2087
Outline: as §1

COc1nc(C)cnc1NS(=O)(=O)c1cccnc1-c1ccc(-c2nnco2)cc1 [Zibotentan] + CC(=O)Nc1cccc(-n2c(=O)n(C3CC3)c(=O)c3c(Nc4ccc(I)cc4F)n(C)c(=O)c(C)c32)c1 [Trametinib] (partner 0.02 µM)
relative viability ([1]; first compound 0.08 µM): 0.461
relative viability ([1]; first compound 0.253 µM): 0.383
relative viability ([1]; first compound 0.8 µM): 0.399
relative viability ([1]; first compound 2.53 µM): 0.437
relative viability ([2]; first compound 0.08 µM): 1.06
relative viability ([2]; first compound 0.253 µM): 1.04
relative viability ([2]; first compound 0.8 µM): 0.967
relative viability ([2]; first compound 2.53 µM): 0.844
relative viability ([3]; first compound 0.08 µM): 0.631
relative viability ([3]; first compound 0.8 µM): 0.614
relative viability ([3]; first compound 2.53 µM): 0.558
relative viability ([4]; first compound 0.08 µM): 0.42
relative viability ([4]; first compound 0.253 µM): 0.477
relative viability ([4]; first compound 0.8 µM): 0.424
relative viability ([4]; first compound 2.53 µM): 0.47
relative viability ([5]; first compound 0.08 µM): 0.659
relative viability ([5]; first compound 0.253 µM): 0.607
relative viability ([5]; first compound 0.8 µM): 0.667
relative viability ([5]; first compound 2.53 µM): 0.626
relative viability ([6]; first compound 0.08 µM): 0.952
relative viability ([6]; first compound 0.8 µM): 0.994
relative viability ([6]; first compound 2.53 µM): 0.914
relative viability ([7]; first compound 0.08 µM): 1.11
relative viability ([7]; first compound 0.253 µM): 1
relative viability ([7]; first compound 0.8 µM): 0.953
relative viability ([7]; first compound 2.53 µM): 1.07
relative viability ([8]; first compound 0.08 µM): 0.67
relative viability ([8]; first compound 0.253 µM): 0.599
relative viability ([8]; first compound 0.8 µM): 0.648
relative viability ([8]; first compound 2.53 µM): 0.657
relative viability ([9]; first compound 0.08 µM): 0.598
relative viability ([9]; first compound 0.253 µM): 0.547
relative viability ([9]; first compound 0.8 µM): 0.537
relative viability ([9]; first compound 2.53 µM): 0.585
relative viability ([10]; first compound 0.08 µM): 0.581
relative viability ([10]; first compound 0.253 µM): 0.533
relative viability ([10]; first compound 0.8 µM): 0.563
relative viability ([10]; first compound 2.53 µM): 0.556
relative viability ([11]; first compound 0.08 µM): 0.907
relative viability ([11]; first compound 0.253 µM): 0.794
relative viability ([11]; first compound 0.8 µM): 0.832
relative viability ([11]; first compound 2.53 µM): 0.803
relative viability ([12]; first compound 0.08 µM): 0.533
relative viability ([12]; first compound 0.253 µM): 0.448
relative viability ([12]; first compound 0.8 µM): 0.541
relative viability ([12]; first compound 2.53 µM): 0.489
relative viability ([13]; first compound 0.08 µM): 0.503
relative viability ([13]; first compound 0.253 µM): 0.529
relative viability ([13]; first compound 0.8 µM): 0.491
relative viability ([13]; first compound 2.53 µM): 0.548
relative viability ([14]; first compound 0.08 µM): 0.287
relative viability ([14]; first compound 0.253 µM): 0.234
relative viability ([14]; first compound 0.8 µM): 0.31
relative viability ([14]; first compound 2.53 µM): 0.312
relative viability ([15]; first compound 0.08 µM): 1.05
relative viability ([15]; first compound 0.253 µM): 0.947
relative viability ([15]; first compound 0.8 µM): 1.07
relative viability ([15]; first compound 2.53 µM): 1.07
relative viability ([16]; first compound 0.08 µM): 0.803
relative viability ([16]; first compound 0.253 µM): 0.704
relative viability ([16]; first compound 0.8 µM): 0.631
relative viability ([16]; first compound 2.53 µM): 0.79
relative viability ([17]; first compound 0.08 µM): 0.525
relative viability ([17]; first compound 0.253 µM): 0.454
relative viability ([17]; first compound 0.8 µM): 0.487
relative viability ([17]; first compound 2.53 µM): 0.508
relative viability ([18]; first compound 0.08 µM): 0.685
relative viability ([18]; first compound 0.253 µM): 0.704
relative viability ([18]; first compound 0.8 µM): 0.68
relative viability ([18]; first compound 2.53 µM): 0.737
relative viability ([19]; first compound 0.08 µM): 0.573
relative viability ([19]; first compound 0.253 µM): 0.531
relative viability ([19]; first compound 0.8 µM): 0.831
relative viability ([19]; first compound 2.53 µM): 0.555
relative viability ([20]; first compound 0.08 µM): 0.886
relative viability ([20]; first compound 0.253 µM): 0.899
relative viability ([20]; first compound 0.8 µM): 0.888
relative viability ([20]; first compound 2.53 µM): 0.886
relative viability ([21]; first compound 0.08 µM): 0.192
relative viability ([21]; first compound 0.253 µM): 0.146
relative viability ([21]; first compound 0.8 µM): 0.246
relative viability ([21]; first compound 2.53 µM): 0.208
